Test results published in patent US20260240792A1, “COMPOSITIONS FOR TREATING 5-HT2 CONDITIONS AND METHODS OF USING THE SAME” (Board of Supervisors of Louisiana State University and …, priority 2022, published 2026).
“And” between values parts separate entries of the source, which are not always exact repeats. Identical values can stand only once. “Also recorded” adds a separate entry of the source.

Assays:
rabbits [1] = assay: Topical ocular dosing in rabbits: observation of CNS, systemic, ocular and behavioral effects, ocular tolerability; format: in vivo, rabbit; conditions: for adverse events on repeated dosing / threshold dose for inducing systemic effects and minimal undesirable events: 50 μl per eye; for adverse events on repeated dosing: 2 times on day 1 then 4 times per day for 3 days
Experimental: Apparent Ocular Irritability • b. Induction of Inflammation • c. Reduction of Corneal Barrier Integrity • d. Dry Eye or Excessive Tearing • e. Induction of Neovascularization • f. Induction of Scleral Reddening
Parameters Assessed during 2 hour Observation Window (see, for example, FIG. 1):
Two studies were performed to determine at what dose between 0.01% and 0.1% were behavioral and/or systemic effects observed. 50 μL doses at 0.01%, 0.05%, and 0.075% per eye applied and assessments were made as indicated herein.
The application of most topical eye drops requires repeatedly dosing up to 9 times per day in order to maintain efficacy across the course of waking hours and have efficacious levels available during sleeping hours. The effects of repeated ocular dosing of R-DOI were assessed in a similar manner as described herein, with the exception that doses of 0.01% or 0.05% were applied repeatedly as outlined herein:
Animals from the acute dosing were continued through the repeated dosing study. Animals were dosed at the indicated concentration 2 times on day 1 and then dosed 4 times per day for 3 subsequent days. Doses were administered at 50 μl per eye into both eyes of the animal.
Rabbits were assessed for clinically clear eyes by slit lamp ophthalmic scoring. All eyes of all rabbits were normal.
Following balancing animals were treated with 50 μL of Control ophthalmic BSS/0.5% CMC or 0.01% Compound 1 in ophthalmic BSS/0.5% CMC.
Any behavioral changes were continuously monitored over the next 2.5 hours (FIG. 3).
We can determine if a single dose of the ocular composition of 0.01% R-DOI with 0.5% carboxymethylcellulose in ophthalmic BSS: • 1. Reproduced previous findings that R-DOI had IOP depressing effects. • 2. Produced any readily observable behavioral effects. • 3. Was tolerated by the eye without adverse ocular effects, including absence of: • a. Apparent Ocular Irritability • b. Induction of Inflammation • c. Dry Eye or Excessive Tearing • d. Induction of Scleral Reddening • 4. Reduced IOP • 5. Maintained Reduction in IOP • 6. Increased Tear Film Production
(§1) • Rabbits were assessed for clinically clear eyes by slit lamp ophthalmic scoring. All eyes of all rabbits were normal. • Each eye of each rabbit was then assessed for initial IOP by tonometer. • Each eye of each rabbit was assessed for tear film production by Schirmer's Tear Flo Strips at a 30 second interval of analysis. Tear measures were evaluated by a digital caliper to determine mm of tears collected. • Rabbits were sorted into two groups attempting to balance IOP numbers (one higher, one lower animal per group). • Following animals were treated with 50 μL of Control ophthalmic BSS/0.5% CMC or 0.01% R-DOI HCl in ophthalmic BSS/0.5% CMC. • Any apparent behavioral changes were continuously monitored over the next 2.5 hours. • IOP determinations were made at 30 minutes, 1 hour, 2 hours and 3 hours, 5 hours, 7 hours and 24 hours-eyes were examined closely for any adverse effects during these IOP measures. • 7 hours post treatment when IOP returned to control levels tear film production was assessed (see, for example, FIG. 9).

rabbits [2] = assay: Intraocular pressure (IOP) after topical ocular dosing in rabbits; format: in vivo, rabbit; conditions: for Ave OS 2 hpt IOP: left eye; for Ave OS 2 hpt IOP / Avg OD 2 hpt IOP: 2 hours after dosing
Experimental: The IOP was assessed as a component of clinical outcomes for the animals in the studies described herein. The table below represents the effect of R-DOI on IOP 2 hours after dosing with the indicated concentration of R-DOI. Eyes were individually assessed and are indicated as IOP for the right (OD) or left (OS) eye.
Each eye of each rabbit was then assessed for initial IOP by tonometer.
IOP determinations were made at 30 minutes, 1 hour, 1.5 hours and 2.5 hours-eyes were examined closely for any adverse effects during these IOP measures.
3 days post treatment at the same time initial measures were made, IOP and tear film production were re-assessed to examine if effects were sustained post 1 treatment.
The IOP was assessed via a TonoVet rebound Tonometer. The tables herein (see, for example, FIG. 4) represent the effect of Compound 1 on IOP at time intervals within the first 2.5 hours after dosing with 0.01% Compound 1 in BSS with 0.5% CMC. Eyes were individually assessed and are indicated as IOP for the right (OD) or left (OS) eye. 3 days post treatment eyes were reassessed for IOP changes to see if the effects of treatment lasted over a prolonged period.
as §1
The IOP was assessed via a TonoVet rebound Tonometer. The tables herein (see, for example, FIGS. 10-11) represents the effect of R-DOI on IOP at the defined time intervals Eyes were individually assessed and are indicated as IOP for the right (OD) or left (OS) eye.

[3] = Weight changes across 1 week of dosing; format: in vivo, rabbit
[4] = Solubility in ophthalmic eye drop (BSS, 0.5% CMC); format: physicochemical; conditions: 0.1% (5 mg/5 mL) in BSS with 0.5% CMC, pH 7.0
Experimental: Non-Limiting, Exemplary Findings Discussed within: • The NCE Compound 1 was formulated within an ophthalmic eye drop with BSS and 0.5% carboxymethylcellulose (CMC) at percentages of 0.1% (5 mg/5 ml) and lower with a pH of 7.0.
• The R-DOI HCl was formulated within an ophthalmic eye drop with BSS and 0.5% carboxymethylcellulose (CMC) at percentages of 0.1% (5 mg/5 mL) and lower with a pH of 7.0.

[5] = 0.075%, 50 μL per eye, both eyes, single dose
[6] = 0.075%, 50 μL per eye, both eyes, single dose, listed as R-DOI HCl
[7] = 0.1%, 50 μL per eye, both eyes, single dose
[8] = 0.1%, 50 μL per eye, both eyes, single dose, 2 hour observation
[9] = 0.1%, 50 μL per eye, both eyes, single dose, 2 hour observation, listed as R-DOI HCl
[10] = 0.01% single dose, group E5/E6, 2 h
[11] = 0.1% single dose, group E3/E4, 2 h
[12] = 0.01% (1 dose/day day 1, 2 dose/day day 2, 4 dose/day days 3-5)
[13] = 0.1% day 1, then 0.05% (2 dose/day day 2, 4 dose/day days 3-5)

For `COc1cc(C[C@@H](C)N)c(OC)cc1I` [R-DOI, (R)-1-(2,5-dimethoxy-4-iodophenyl)-2-aminopropane], the “ocular tolerability of ophthalmic drops (irritability, dry eye or tearing, corneal damage, inflammation, neovascularization)” value (rabbits [1]; 0.01% or 0.05%, repeated dosing, listed as R-DOI HCl) was “tolerated with no signs or symptoms of irritability; also recorded: Neither signs of dry eye nor excessive tear production was observed; also recorded: no damage to corneal surfaces, barrier intactness, inflammation, or neovascularization”, the “adverse events (ocular, systemic, behavioral or otherwise)” value (rabbits [1]; 0.01%, 50 μL per eye, both eyes, single dose) was “No observable changes; also recorded: no apparent adverse events” and the “adverse events (ocular, systemic, behavioral or otherwise)” value (rabbits [1]; 0.01%, 50 μL per eye, both eyes, single dose, listed as R-DOI HCl) was “no adverse or abnormal events observed”. The “adverse events on repeated dosing” value (rabbits [1]; 0.01%, both eyes) was “did not cause any adverse events; also recorded: No observable changes”, the “adverse events on repeated dosing” value (rabbits [1]; 0.01%, both eyes, listed as R-DOI HCl) was “no adverse or abnormal events observed” and the “acute ocular toxicity, irritability or adverse ocular reactions” value (rabbits [1]; 0.01%, acute single dosing) was “did not exhibit any acute ocular toxicity, irritability, or adverse ocular reactions”. The “adverse events (ocular, systemic, behavioral or otherwise)” value (rabbits [1]; 0.05%, 50 μL per eye, both eyes, single dose) was “No adverse events; also recorded: No observable changes”, the “adverse events (ocular, systemic, behavioral or otherwise)” value (rabbits [1]; 0.05%, 50 μL per eye, both eyes, single dose, listed as R-DOI HCl) was “no adverse or abnormal events observed” and the “adverse events on repeated dosing” value (rabbits [1]; 0.05%, both eyes) was “did not cause any adverse events; also recorded: No observable changes”. The “adverse events on repeated dosing” value (rabbits [1]; 0.05%, both eyes, listed as R-DOI HCl) was “no adverse or abnormal events observed”, the “adverse events (ocular, systemic, behavioral or otherwise)” value (rabbits [1]; [5]) was “No adverse events; also recorded: No CNS, Ocular Behavioral or Systemic Changes” and the “pupil dilation/contraction (miosis)” value (rabbits [1]; [5]) was “Slight Miosis can be observed in E10 and E11”. The “adverse events (ocular, systemic, behavioral or otherwise)” value (rabbits [1]; [6]) was “no adverse CNS or systemic events observed”, the “pupil dilation/contraction (miosis)” value (rabbits [1]; [6]) was “Slight but transient miosis was evident in 2 animals” and the “time for miosis to resolve to normal after initial observation” value (rabbits [1]; 0.075%, single dose, 2 animals) was no more than 15 min. The onset of symptoms (rabbits [1]; [7]) was 20 min, the “time post treatment at which observed effects were cleared” value (rabbits [1]; [7]) was “cleared by one hour post administration and 1 hour to 2 hour post: Regained Responsiveness; Breathing Normal; Pupils Normal” and the “CNS associated behavioral effects” value (rabbits [1]; [8]) was “only slight CNS associated behavioral effects were noted; also recorded: Lethargy; also recorded: Head twitch?”. The “pupil dilation/contraction (miosis)” value (rabbits [1]; [8]) was “miosis or contraction of the pupil; also recorded: Miosis obvious (pupil contracted)”, the “systemic effects (respiration and heart rate)” value (rabbits [1]; [8]) was “increased respiration and heart rate were noted; also recorded: Increased breathing and Heartrate” and the “CNS associated behavioral effects” value (rabbits [1]; [9]) was “minimal to no head bobs/twitches observed”. For the same molecule, the “systemic effects (respiration and heart rate)” value (rabbits [1]; [9]) was “obvious increased respiration and heart rates”, the “time post treatment at which observed effects were cleared” value (rabbits [1]; 0.1%, 50 μL per eye, both eyes, single dose, listed as R-DOI HCl) was “approximately 1 hour” and the “threshold dose for inducing systemic effects and minimal undesirable events” value (rabbits [1]; both eyes) was “greater than 0.075%”. For the same molecule, the “threshold dose for inducing systemic effects and minimal undesirable events” value (rabbits [1]; both eyes, listed as R-DOI HCl) was 0.1%, the “systemic and behavioral threshold concentration for delivery” value (rabbits [1]; delivered as a 50 μL drop of 0.1% ophthalmic solution to both eyes) was ≥ 100 total micrograms per animal and the “acute ocular toxicity, irritability or adverse ocular reactions” value (rabbits [1]; topical eye drop, acute single dosing and repeated dosing trials) was “did not exhibit any acute ocular toxicity, irritability or adverse ocular reactions”. For the same molecule, the “time post administration by which a significant decrease in IOP was shown” value (rabbits [2]; 0.01% single dose) was no more than 30 min, the “whether the decrease in intraocular pressure was sustained” value (rabbits [2]; 0.01% single dose, IOP followed to 24 hours) was “not sustained following 3 hours post treatment” and the “Avg % change Group” value (rabbits [2]; [10]) was −53.33%. For the same molecule, the “Avg Delta Eye Group” value (rabbits [2]; [10]) was −7.75, the “Ave OS 2 hpt IOP” value (rabbits [2]; 0.01% single dose) was 13.50 and 7.00 and the “Avg OD 2 hpt IOP” value (rabbits [2]; 0.01% single dose, right eye) was 12.25 and 7.00. For the same molecule, the “% Change (OD)” value (rabbits [2]; 0.01% single dose, right eye, 2 h vs starting IOP) was −56.67% and −50.00%, the “Avg % change Group” value (rabbits [2]; [11]) was −30.77% and the “Avg Delta Eye Group” value (rabbits [2]; [11]) was −4.94. The “Ave OS 2 hpt IOP” value (rabbits [2]; 0.1% single dose) was 13.25 and 9.00, the “Avg OD 2 hpt IOP” value (rabbits [2]; 0.1% single dose, right eye) was 11.50 and 13.25 and the “effect on intraocular pressure” value (rabbits [2]; single topical ocular dose) was “decreased IOP with the greatest reduction of IOP observed for the lower R-DOI dosages; also recorded: acutely decreased intraocular pressure with a single dose”. For the same molecule, the “1 week weight” value [3, 12] was 3.17 kg and 2.89 kg, the “1 week weight change” value [3, 12] was 0.11 and 0.07 and the “weight with repeated dosing” value ([3]; 0.01% or 0.05% repeated dosing, 1 week) was “no loss of weight with repeated dosing”. For the same molecule, the “1 week weight” value [3, 13] was 2.96 kg and 2.79 kg, the “1 week weight change” value [3, 13] was 0.08 and 0.09 and the “Solubility of the compound” value [4] was “good with no remaining precipitates”.
